Measured values as given in patent US20230095618A1, “OIL-IN-WATER EMULSION COMPRISING A SOLID LIPID MATERIAL” (priority 2020, published 2023).

Test system: yellow fever mosquito, Aedes aegypti Rockefeller strain
Experiment: Repulsive effect on mosquitoes: number of landings on a treated warm glass plate in a cage
Assay type: in vivo
Details: reference actives diluted at 12.5% in ethanol; for number of mosquito landings: glass plate at 34° C., cage with 30 unfed A. aegypti females
Protocol: Controlling efficacy was tested against the yellow fever mosquito, Aedes aegypti Rockefeller strain. […] Observations of controlling efficacy were made on host-seeking females of uniform age, 5 to 12 days post-eclosion from pupae. Tested hungry females had access to 10% sugar solution but were not blood-fed. The testing protocol was adapted from the method described in Krober et al. (2010; doi: 10.2987/10-6044.1). A controlled amount […] of stimulus was deposited in the center of a sandblasted glass plate (60 mm diam) and maintained at 34° C. The glass plate was then placed in a polycarbonate cage (200×260×180 mm) containing 30 A. aegypti unfed female mosquitoes. The number of landings of the mosquitoes as a function of time was monitored using a camera and allowed to evaluate the repulsive effect of the stimulus. Stimuli tested were water, ethanol or diluted insect repellent active as controls and samples according to example 1. When only water is applied onto the glass surface, the average number of mosquitoes landing is about 63. The reference sample consisting of pure IR3535® diluted at 12.5% in ethanol reduces the number of landing from about 63 landings in the control test to about 12 landings 2 hrs after application (81% reduction), 15 after 4 hrs (−76%) and 30 after 6 hrs (−52%). Emulsion 1 according to example 1 reduces the number of landings from about 63 landings in the control test to about 12 landings 2 hrs after application (81% reduction), 4 after 4 hrs (−93%) and 3 after 6 hrs (−95%). […] Emulsion 2 according to example 1 reduces the number of landings from about 63 landings in the control test to about 8 landings 2 hrs after application (87% reduction), 2 after 4 hrs (−97%) and 4 after 6 hrs (−93%).

SMILES	number of mosquito landings (2 hrs after application)	reduction of the number of landings versus water control (2 hrs after application) [%]	number of mosquito landings (after 4 hrs) [landings]	change of the number of landings versus water control (given as negative %) (after 4 hrs) [%]	number of mosquito landings (after 6 hrs) [landings]	change of the number of landings versus water control (given as negative %) (after 6 hrs) [%]
CCN(CC)C(=O)c1cccc(C)c1 [DEET, N,N-diethyl-3-methylbenzamide]	about 15 landings	72	~10	−81	~19	−65
CCCCN(CCC(=O)OCC)C(C)=O [IR3535®, ethyl 3-(acetyl(butyl)amino)propanoate]	about 12 landings	81	~15	−76	~30	−52
